In PubChem BioAssay AID1919000 (Molecular Pharmacology Branch, DTP, NCI, 2023):
Several values for one entry are separate records, joined by “and”; a condition that tells them apart may be missing. Identical values can stand only once.

Tested on: 653999-131-R-J2-PDC complex spheroids, growth % test/control
Test: Anticancer human tumor 653999-131-R-J2-PDC patient-derived lung adenocarcinoma cell line growth inhibition [AhR]
Settings: for viability, T/C: stronger effect = lower value; active = viability on the fitted dose curve at most 10% of control; inactive = the rest
Outline: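 Agents were dosed in half-log steps down from roughly clinical Cmax, or from 10 microM where Cmax was unknown, alone and with AhR antagonists. Read-out: percent test/control growth of tumor spheroids containing HUVEC and MSC stromal cells.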

[1] = curve of first compound, second compound 0.1 µM
[2] = curve of first compound, second compound 0.316 µM
[3] = curve of first compound, second compound 1 µM
[4] = curve of first compound, second compound 3.16 µM
[5] = curve of first compound, second compound 10 µM
[6] = second compound 0.1 µM, first compound 0.00949 µM
[7] = second compound 0.1 µM, first compound 0.03 µM
[8] = second compound 0.1 µM, first compound 0.0949 µM
[9] = second compound 0.1 µM, first compound 0.3 µM
[10] = second compound 0.316 µM, first compound 0.00949 µM
[11] = second compound 0.316 µM, first compound 0.03 µM
[12] = second compound 0.316 µM, first compound 0.0949 µM
[13] = second compound 0.316 µM, first compound 0.3 µM
[14] = second compound 1 µM, first compound 0.00949 µM
[15] = second compound 1 µM, first compound 0.03 µM
[16] = second compound 1 µM, first compound 0.0949 µM
[17] = second compound 1 µM, first compound 0.3 µM
[18] = second compound 3.16 µM, first compound 0.00949 µM
[19] = second compound 3.16 µM, first compound 0.03 µM
[20] = second compound 3.16 µM, first compound 0.0949 µM
[21] = second compound 3.16 µM, first compound 0.3 µM
[22] = second compound 10 µM, first compound 0.00949 µM
[23] = second compound 10 µM, first compound 0.03 µM
[24] = second compound 10 µM, first compound 0.0949 µM
[25] = second compound 10 µM, first compound 0.3 µM
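Also: spheroids exposed to agents for seven days.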
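For viability, T/C in this document: 100% = DMSO vehicle control viability.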

Nc1ncn(C2CC(O)C(CO)S2)c(=O)n1 (configuration not stated) + CC(CO)NC(=O)c1cc(-c2ccc(Cl)cc2)nn(-c2cnn(C)c2)c1=O
> 300 nM: IC50 [1] | IC50 [2] | IC50 [3] | IC50 [4] | IC50 [5]
inactive: viability, T/C (second compound 0.1 µM, first compound 0.000949 µM) 101% | viability, T/C (second compound 0.1 µM, first compound 0.003 µM) 117% | viability, T/C [6] 111% | viability, T/C [7] 103% | viability, T/C [8] 97.3% | viability, T/C [9] 84.8% | viability, T/C (second compound 0.316 µM, first compound 0.000949 µM) 106% | viability, T/C (second compound 0.316 µM, first compound 0.003 µM) 121% | viability, T/C [10] 134% | viability, T/C [11] 100% | viability, T/C [12] 104% | viability, T/C [13] 88.1% | viability, T/C (second compound 1 µM, first compound 0.000949 µM) 119% | viability, T/C (second compound 1 µM, first compound 0.003 µM) 115% | viability, T/C [14] 110% | viability, T/C [15] 103% | viability, T/C [16] 110% | viability, T/C [17] 84% | viability, T/C (second compound 3.16 µM, first compound 0.000949 µM) 121% | viability, T/C (second compound 3.16 µM, first compound 0.003 µM) 101% | viability, T/C [18] 104% | viability, T/C [19] 121% | viability, T/C [20] 101% | viability, T/C [21] 96.4% | viability, T/C (second compound 10 µM, first compound 0.000949 µM) 117% | viability, T/C (second compound 10 µM, first compound 0.003 µM) 120% | viability, T/C [22] 127% | viability, T/C [23] 127% | viability, T/C [24] 116% | viability, T/C [25] 103%

CC1(C)CCC(CN2CCN(c3ccc(C(=O)NS(=O)(=O)c4ccc(NCC5CCOCC5)c([N+](=O)[O-])c4)c(Oc4cnc5[nH]ccc5c4)c3)CC2)=C(c2ccc(Cl)cc2)C1
inactive: viability, T/C (compound 0.0316 µM) 108% (2×) and 103% | viability, T/C (compound 0.1 µM) 97.3% and 103% and 116% | viability, T/C (compound 0.316 µM) 98% and 88.8% and 104% | viability, T/C (compound 1 µM) 105% and 102% and 104% | viability, T/C (compound 3.16 µM) 106% and 99.7% and 108% | viability, T/C (compound 10 µM) 85.9% and 58.9% and 74.9%
> 10000 nM: IC50 (curve of compound)

CCN(c1cc(-c2ccc(CN3CCOCC3)cc2)cc(C(=O)NCc2c(C)cc(C)[nH]c2=O)c1C)C1CCOCC1 + Cc1cncc(-c2nc(NCCc3c[nH]c4ccccc34)c3ncn(C(C)C)c3n2)c1
> 3000 nM: IC50 [1] | IC50 [2] | IC50 [3] | IC50 [4]
165 nM: IC50 [5]
inactive: viability, T/C [6] 96.7% | viability, T/C [7] 105% | viability, T/C [8] 104% | viability, T/C [9] 94.6% | viability, T/C (second compound 0.1 µM, first compound 0.949 µM) 97.9% | viability, T/C (second compound 0.1 µM, first compound 3 µM) 102% | viability, T/C [10] 121% | viability, T/C [11] 122% | viability, T/C [12] 106% | viability, T/C [13] 99.8% | viability, T/C (second compound 0.316 µM, first compound 0.949 µM) 104% | viability, T/C (second compound 0.316 µM, first compound 3 µM) 103% | viability, T/C [14] 99.7% | viability, T/C [15] 116% | viability, T/C [16] 108% | viability, T/C [17] 114% | viability, T/C (second compound 1 µM, first compound 0.949 µM) 104% | viability, T/C (second compound 1 µM, first compound 3 µM) 100% | viability, T/C [18] 105% | viability, T/C [19] 116% | viability, T/C [20] 104% | viability, T/C [21] 96.2% | viability, T/C (second compound 3.16 µM, first compound 0.949 µM) 98.8% | viability, T/C (second compound 3.16 µM, first compound 3 µM) 113% | viability, T/C [22] 62% | viability, T/C [23] 53.3% | viability, T/C [24] 51.6% | viability, T/C [25] 50.6% | viability, T/C (second compound 10 µM, first compound 0.949 µM) 37.8% | viability, T/C (second compound 10 µM, first compound 3 µM) 28.6%

Cn1ncnc1C1c2n[nH]c(=O)c3cc(F)cc(c23)NC1c1ccc(F)cc1 (configuration not stated) + CC(CO)NC(=O)c1cc(-c2ccc(Cl)cc2)nn(-c2cnn(C)c2)c1=O
> 100 nM: IC50 [1] | IC50 [2] | IC50 [3] | IC50 [4] | IC50 [5]
inactive: viability, T/C (second compound 0.1 µM, first compound 0.000316 µM) 104% | viability, T/C (second compound 0.1 µM, first compound 0.001 µM) 99.5% | viability, T/C (second compound 0.1 µM, first compound 0.00316 µM) 109% | viability, T/C (second compound 0.1 µM, first compound 0.01 µM) 101% | viability, T/C (second compound 0.1 µM, first compound 0.0316 µM) 102% | viability, T/C (second compound 0.1 µM, first compound 0.1 µM) 91.9% | viability, T/C (second compound 0.316 µM, first compound 0.000316 µM) 111% | viability, T/C (second compound 0.316 µM, first compound 0.001 µM) 98.8% | viability, T/C (second compound 0.316 µM, first compound 0.00316 µM) 97.1% | viability, T/C (second compound 0.316 µM, first compound 0.01 µM) 96.3% | viability, T/C (second compound 0.316 µM, first compound 0.0316 µM) 87.2% | viability, T/C (second compound 0.316 µM, first compound 0.1 µM) 102% | viability, T/C (second compound 1 µM, first compound 0.000316 µM) 105% | viability, T/C (second compound 1 µM, first compound 0.001 µM) 103% | viability, T/C (second compound 1 µM, first compound 0.00316 µM) 102% | viability, T/C (second compound 1 µM, first compound 0.01 µM) 106% | viability, T/C (second compound 1 µM, first compound 0.0316 µM) 95.5% | viability, T/C (second compound 1 µM, first compound 0.1 µM) 96% | viability, T/C (second compound 3.16 µM, first compound 0.000316 µM) 99.2% | viability, T/C (second compound 3.16 µM, first compound 0.001 µM) 107% | viability, T/C (second compound 3.16 µM, first compound 0.00316 µM) 114% | viability, T/C (second compound 3.16 µM, first compound 0.01 µM) 102% | viability, T/C (second compound 3.16 µM, first compound 0.0316 µM) 97.2% | viability, T/C (second compound 3.16 µM, first compound 0.1 µM) 100% | viability, T/C (second compound 10 µM, first compound 0.000316 µM) 106% | viability, T/C (second compound 10 µM, first compound 0.001 µM) 105% | viability, T/C (second compound 10 µM, first compound 0.00316 µM) 103% | viability, T/C (second compound 10 µM, first compound 0.01 µM) 97.1% | viability, T/C (second compound 10 µM, first compound 0.0316 µM) 94.8% | viability, T/C (second compound 10 µM, first compound 0.1 µM) 93.2%
